According to patent US20250248973A1, “CANNABINOID RECEPTOR 1 ANTAGONISTS/INVERSE AGONISTS AND USES THEREOF” (Corbus Pharmaceuticals, Inc., priority 2022, published 2025):

Assays:
[1] = target: Human CB1 Receptor-1 (hCB1) (Homo sapiens (Human), UniProt P21554); experiment: hCB1 Gai cyclic AMP (cAMP) TR-FRET assay, antagonism of EC80 CP55940 with forskolin; assay type: cell-based; conditions: hCB1 cells, 30 min pre-incubation
Description: (§1) Example 3. Biochemical Methods Human CB1 Receptor-1 (hCB1) and Human CB1 Receptor-1b (hCBib)
(§2) hCB1/hCB1 b Gai Cyclic AMP (cAMP) Assays: Cells were seeded in a 384-well plate at an appropriate density from frozen cells. The cAMP assays were performed according to the manufacturer's protocol using MULTISCREEN™ TR-FRET cAMP 1.0 No Wash Assay Kit. Cells (hCB1 or hCB1 b) were pre-incubated with customer compounds for 30 minutes at rt followed by addition of EC80 CP55940 concentration and Forskolin. Cells were then incubated for 20 minutes at 37C. The reaction was terminated by sequentially adding sequentially adding MULTISCREEN™ Eu-labeled cAMP and MULTISCREEN™ 650-labeled anti-cAMP antibody in lysis buffer. The plate was then incubated at rt for 30 minutes before reading fluorescent emissions at 620 nm and 665 with excitation at 314 nm on FlexStation III (Molecular Devices). The results are shown in Table 2 (“***” denotes an IC50<100 nM; “**” denotes an IC50 between 100 nM and 500 nM, and “*” denotes an IC50>500 nM).

[2] = target: Human CB1 Receptor-1b (hCB1b) (Homo sapiens (Human), UniProt P21554); experiment: hCB1b Gai cyclic AMP (cAMP) TR-FRET assay, antagonism of EC80 CP55940 with forskolin; assay type: cell-based; conditions: hCB1b cells, 30 min pre-incubation, read-out: CB1b IC50
Description: as §1, §2

Sequence of Human CB1 Receptor-1 (hCB1) (P21554 whole entry): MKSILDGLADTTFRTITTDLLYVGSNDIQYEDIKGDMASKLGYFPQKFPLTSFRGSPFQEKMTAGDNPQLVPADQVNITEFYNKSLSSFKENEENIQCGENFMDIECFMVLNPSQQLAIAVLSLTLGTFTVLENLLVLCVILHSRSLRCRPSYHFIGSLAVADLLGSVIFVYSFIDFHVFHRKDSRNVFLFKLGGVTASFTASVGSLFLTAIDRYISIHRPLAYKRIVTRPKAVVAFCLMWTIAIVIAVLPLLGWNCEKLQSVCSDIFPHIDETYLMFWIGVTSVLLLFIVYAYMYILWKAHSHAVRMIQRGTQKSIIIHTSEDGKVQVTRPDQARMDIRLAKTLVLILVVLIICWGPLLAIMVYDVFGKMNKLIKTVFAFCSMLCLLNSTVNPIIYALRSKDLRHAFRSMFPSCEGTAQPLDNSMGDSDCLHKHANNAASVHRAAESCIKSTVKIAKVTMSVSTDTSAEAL
Sequence of Human CB1 Receptor-1b (hCB1b) (P21554 other isoform, or with tags, fused parts or gaps): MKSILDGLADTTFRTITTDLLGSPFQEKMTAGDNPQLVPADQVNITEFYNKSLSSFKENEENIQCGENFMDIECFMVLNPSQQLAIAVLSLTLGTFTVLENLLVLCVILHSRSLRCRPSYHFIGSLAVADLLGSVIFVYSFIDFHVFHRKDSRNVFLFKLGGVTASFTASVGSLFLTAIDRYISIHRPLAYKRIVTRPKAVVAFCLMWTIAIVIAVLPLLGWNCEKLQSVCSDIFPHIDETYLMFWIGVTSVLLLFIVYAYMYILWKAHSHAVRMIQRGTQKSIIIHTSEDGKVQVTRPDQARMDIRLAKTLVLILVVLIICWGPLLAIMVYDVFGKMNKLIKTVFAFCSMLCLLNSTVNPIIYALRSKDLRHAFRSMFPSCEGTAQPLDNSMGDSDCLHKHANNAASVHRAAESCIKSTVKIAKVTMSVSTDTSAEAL

IC50 [1] [nM]	IC50 [2] [nM]	SMILES
< 100	< 100	O=S(=O)(/N=C(\NCCS(=O)(=O)N1CCNCC1)N1C[C@H](c2ccccc2)C(c2ccc(Cl)cc2)=N1)c1ccc(Cl)cc1 [Compound 159, (S,E)-3-(4-chlorophenyl)-N′-((4-chlorophenyl)sulfonyl)-4-phenyl-N-(2-(piperazin-1-ylsulfonyl)ethyl)-4,5-dihydro-1H-pyrazole-1-carboximidamide]
> 500	< 100	NS(=O)(=O)O[C@H]1C[C@@H](N/C(=N\S(=O)(=O)c2ccc(C(F)(F)F)cc2)N2C[C@@H](c3ccccc3)C(c3ccc(Cl)cc3)=N2)C1 [Compound 228, (1R,3s)-3-((R,E)-3-(4-chlorophenyl)-4-phenyl-N′-((4-(trifluoromethyl)phenyl)sulfonyl)-4,5-dihydro-1H-pyrazole-1-carboximidamido)cyclobutyl sulfamate]
100 to 500	< 100	NS(=O)(=O)[C@@H]1CC[C@@H](N/C(=N/S(=O)(=O)c2ccc(Cl)cc2)N2C[C@H](c3ccccc3)C(c3ccc(F)cc3)=N2)C1 [Compound 153, (S,Z)-N′-((4-chlorophenyl)sulfonyl)-3-(4-fluorophenyl)-4-phenyl-N-((1R,3R)-3-sulfamoylcyclopentyl)-4,5-dihydro-1H-pyrazole-1-carboximidamide]
< 100	100 to 500	CN1CCN(S(=O)(=O)CCN/C(=N\S(=O)(=O)c2ccc(F)cc2)N2C[C@H](c3ccccc3)C(c3ccc(F)cc3)=N2)CC1 [Compound 165, (S,E)-3-(4-fluorophenyl)-N′-((4-fluorophenyl)sulfonyl)-N-(2-((4-methylpiperazin-1-yl)sulfonyl)ethyl)-4-phenyl-4,5-dihydro-1H-pyrazole-1-carboximidamide]
> 500	> 500	NS(=O)(=O)[C@H]1C[C@@H](N/C(=N/S(=O)(=O)c2ccc(Cl)cc2)N2C[C@H](c3ccccc3)C(c3ccc(F)cc3)=N2)C1 (single isomer, unassigned) [Compound 129]
100 to 500	100 to 500	NS(=O)(=O)[C@H]1CC[C@@H](N/C(=N/S(=O)(=O)c2ccc(Cl)cc2)N2C[C@H](c3ccccc3)C(c3ccc(Cl)cc3)=N2)C1 (single isomer, unassigned) [Compound 145]
> 500	< 100	NS(=O)(=O)O[C@H]1C[C@@H](N/C(=N\S(=O)(=O)c2ccc(Cl)cc2)N2C[C@@H](c3ccccc3)C(c3ccc(Cl)cc3)=N2)C1 (single isomer, unassigned) [Compound 226]
100 to 500	< 100	NS(=O)(=O)N1CC[C@@H](N/C(=N/S(=O)(=O)c2ccc(Cl)cc2)N2C[C@H](c3ccccc3)C(c3ccc(Cl)cc3)=N2)C1 [Compound 247, (S,Z)-3-(4-chlorophenyl)-N′-((4-chlorophenyl)sulfonyl)-4-phenyl-N-((R)-1-sulfamoylpyrrolidin-3-yl)-4,5-dihydro-1H-pyrazole-1-carboximidamide]
100 to 500	100 to 500	NS(=O)(=O)[C@H]1CC[C@H](N/C(=N/S(=O)(=O)c2ccc(Cl)cc2)N2C[C@H](c3ccccc3)C(c3ccc(Cl)cc3)=N2)C1 (single isomer, unassigned) [Compound 139]
100 to 500		NS(=O)(=O)O[C@H]1C[C@@H](N/C(=N\S(=O)(=O)c2ccc(C(F)(F)F)cc2)N2C[C@H](c3ccccc3)C(c3ccc(Cl)cc3)=N2)C1 [Compound 227, (1R,3s)-3-((S,E)-3-(4-chlorophenyl)-4-phenyl-N′-((4-(trifluoromethyl)phenyl)sulfonyl)-4,5-dihydro-1H-pyrazole-1-carboximidamido)cyclobutyl sulfamate]

More lines, now with the values behind:

SMILES	IC50 [1] [nM]	IC50 [2] [nM]
NS(=O)(=O)[C@H]1C[C@@H](N/C(=N/S(=O)(=O)c2ccc(Cl)cc2)N2C[C@H](c3ccccc3)C(c3ccc(Cl)cc3)=N2)C1 (single isomer, unassigned) [Compound 116]	100 to 500	100 to 500
NS(=O)(=O)[C@H]1CC[C@H](N/C(=N/S(=O)(=O)c2ccc(Cl)cc2)N2C[C@@H](c3ccccc3)C(c3ccc(Cl)cc3)=N2)CC1 (single isomer, unassigned) [Compound 122]	100 to 500	100 to 500
NS(=O)(=O)C1CCN(/C(=N/S(=O)(=O)c2ccc(Cl)cc2)N2C[C@H](c3ccccc3)C(c3ccc(F)cc3)=N2)CC1 [Compound 111, (S,Z)-1-((((4-chlorophenyl)sulfonyl)imino)(3-(4-fluorophenyl)-4-phenyl-4,5-dihydro-1H-pyrazol-1-yl)methyl)piperidine-4-sulfonamide]	> 500	> 500
NS(=O)(=O)CCN/C(=N\S(=O)(=O)c1ccc(F)cc1)N1C[C@H](c2ccccc2)C(c2ccc(Cl)cc2)=N1 [Compound 11, (S,E)-3-(4-chlorophenyl)-N′-((4-fluorophenyl)sulfonyl)-4-phenyl-N-(2-sulfamoylethyl)-4,5-dihydro-1H-pyrazole-1-carboximidamide]	< 100	< 100
C#Cc1ccc(S(=O)(=O)N=C(NCCS(N)(=O)=O)N2C[C@H](c3ccccc3)C(c3ccc(Cl)cc3)=N2)cc1 [Compound 21, (S)-3-(4-chlorophenyl)-N′-((4-ethynylphenyl)sulfonyl)-4-phenyl-N-(2-sulfamoylethyl)-4,5-dihydro-1H-pyrazole-1-carboximidamide]	< 100	< 100
NS(=O)(=O)CCNC(=NS(=O)(=O)c1ccc(F)cc1)N1C[C@H](c2ccccc2)C(c2ccc(F)cc2)=N1 [Compound 51, (S)-3-(4-fluorophenyl)-N′-((4-fluorophenyl)sulfonyl)-4-phenyl-N-(2-sulfamoylethyl)-4,5-dihydro-1H-pyrazole-1-carboximidamide]	100 to 500	100 to 500
NS(=O)(=O)C1CCN(/C(=N/S(=O)(=O)c2ccc(Cl)cc2)N2C[C@H](c3ccccc3)C(c3ccc(Cl)cc3)=N2)CC1 [Compound 113, (S,Z)-1-((3-(4-chlorophenyl)-4-phenyl-4,5-dihydro-1H-pyrazol-1-yl)(((4-chlorophenyl)sulfonyl)imino)methyl)piperidine-4-sulfonamide]	> 500	> 500
C[C@@H](CN/C(=N\S(=O)(=O)c1ccc(C(F)(F)F)cc1)N1C[C@H](c2ccccc2)C(c2ccc(Cl)cc2)=N1)S(N)(=O)=O [Compound 18, (S,E)-3-(4-chlorophenyl)-4-phenyl-N-((S)-2-sulfamoylpropyl)-N′-((4-(trifluoromethyl)phenyl)sulfonyl)-4,5-dihydro-1H-pyrazole-1-carboximidamide]	< 100	100 to 500
C[C@@H](CN/C(=N\S(=O)(=O)c1ccc(Cl)cc1)N1C[C@H](c2ccccc2)C(c2ccc(Cl)cc2)=N1)S(N)(=O)=O [Compound 6, (S,E)-3-(4-chlorophenyl)-N′-((4-chlorophenyl)sulfonyl)-4-phenyl-N-((S)-2-sulfamoylpropyl)-4,5-dihydro-1H-pyrazole-1-carboximidamide]	100 to 500	< 100
C#Cc1ccccc1S(=O)(=O)N=C(NCCS(N)(=O)=O)N1C[C@H](c2ccccc2)C(c2ccc(Cl)cc2)=N1 [Compound 33, (S)-3-(4-chlorophenyl)-N′-((2-ethynylphenyl)sulfonyl)-4-phenyl-N-(2-sulfamoylethyl)-4,5-dihydro-1H-pyrazole-1-carboximidamide]	100 to 500	
C[C@@H](CS(N)(=O)=O)N/C(=N\S(=O)(=O)c1ccc(Cl)cc1)N1CC(c2ccccc2)C(c2ccc(Cl)cc2)=N1 (stereo in doubt) [Compound 1, (R,E)-3-(4-chlorophenyl)-N′-((4-chlorophenyl)sulfonyl)-4-phenyl-N-((S)-1-sulfamoylpropan-2-yl)-4,5-dihydro-1H-pyrazole-1-carboximidamide]	< 100	< 100
NS(=O)(=O)CCNC(=NS(=O)(=O)c1cccnc1)N1C[C@H](c2ccccc2)C(c2ccc(Cl)cc2)=N1 [Compound 65, (S)-3-(4-chlorophenyl)-4-phenyl-N′-(pyridin-3-ylsulfonyl)-N-(2-sulfamoylethyl)-4,5-dihydro-1H-pyrazole-1-carboximidamide]	< 100	< 100
C[C@@H](CN/C(=N\S(=O)(=O)c1ccc(C(F)(F)F)cc1)N1C[C@H](c2ccccc2)C(c2ccc(F)cc2)=N1)S(N)(=O)=O (single isomer, unassigned) [Compound 48]	< 100	< 100
C[C@@H](CN/C(=N\S(=O)(=O)c1ccc(F)cc1)N1C[C@H](c2ccccc2)C(c2ccc(F)cc2)=N1)S(N)(=O)=O [Compound 54, (S,E)-3-(4-fluorophenyl)-N′-((4-fluorophenyl)sulfonyl)-4-phenyl-N-((S)-2-sulfamoylpropyl)-4,5-dihydro-1H-pyrazole-1-carboximidamide]	< 100	< 100
C[C@H](CN/C(=N\S(=O)(=O)c1ccc(F)cc1)N1C[C@H](c2ccccc2)C(c2ccc(Cl)cc2)=N1)S(N)(=O)=O [Compound 14, (S,E)-3-(4-chlorophenyl)-N′-((4-fluorophenyl)sulfonyl)-4-phenyl-N-((R)-2-sulfamoylpropyl)-4,5-dihydro-1H-pyrazole-1-carboximidamide]	< 100	< 100
